Common to all, as to assay type: in vivo
For test [1], the system named is Puccinia recondita f. sp. tritici. The test can be described thus: Test B: wheat leaf rust, preventive spray on wheat seedlings. Particulars: 200 ppm, 100 = 100% disease control, 0 = no control relative to controls; for pest or weed control at 200 ppm: Puccinia recondita, 192 h, read-out: Test B disease control rating. The essentials: (§1)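 Spray suspensions: compound in acetone at 3% of final volume, diluted into acetone:water 1:1 containing 250 ppm polyhydric alcohol ester surfactant. Applied to run-off at 40 or 200 ppm; the higher level corresponds to 500 g/ha.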

Another test relates to Septoria nodorum. The test can be described thus: Test C: wheat glume blotch, preventive spray on wheat seedlings. Particulars: 200 ppm, 100 = 100% disease control, 0 = no control relative to controls; for pest or weed control at 200 ppm: Parastagonospora nodorum, 216 h, read-out: Test C disease control rating. The essentials:
as §1

The next test concerns Septoria tritici. The test can be described thus: Test D: wheat leaf blotch, preventive spray on wheat seedlings. The conditions noted are these: 200 ppm, 100 = 100% disease control, 0 = no control relative to controls; for pest or weed control at 200 ppm: Zymoseptoria tritici, 504 h, read-out: Test D disease control rating. The essentials:
as §1

For another test, the system named is Fusarium graminearum. The test can be described thus: whole plant or invertebrate. Particulars: for pest or weed control at 200 ppm: Fusarium graminearum, in Triticum aestivum, 192 h, read-out: Test E disease control rating; for Test E disease control rating: 200 ppm, 100 = 100% disease control, 0 = no control relative to controls.
Another test deals with Botrytis cinerea. The test can be described thus: Test F: tomato Botrytis, preventive spray on tomato seedlings. The conditions noted are these: for pest or weed control at 200 ppm: Botrytis cinerea, 120 h, read-out: Test F disease control rating. The essentials: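 Preventive run-off spray onto tomato seedlings at 200 ppm (equivalent to 500 g/ha) or 40 ppm. Suspensions: compound predissolved in acetone at 3% of final volume, then taken up in acetone/purified water 50/50 containing 250 ppm Trem® 014 surfactant.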

A further test deals with Alternaria solani. The test can be described thus: Test H: tomato early blight, preventive spray on seedlings. The conditions noted are these: 200 ppm, 100 = 100% disease control, 0 = no control relative to controls; for pest or weed control at 200 ppm: Alternaria solani, 168 h, read-out: Test H disease control rating. The source says: General protocol for preparing test suspensions for Tests A-R: The test compounds were first dissolved in acetone in an amount equal to 3% of the final volume and then suspended at the desired concentration (in ppm) in acetone and purified water (50/50 mix) containing 250 ppm of the surfactant Trem® 014 (polyhydric alcohol esters). The resulting test suspensions were then used in tests A-R. In Tests A-M, compounds were sprayed as a 200 ppm test suspension (equivalent to a rate of 500 g/ha) or as a 40 ppm test suspension to the point of runoff on the test plants. In Tests N-R, compounds were sprayed as a 100 g/ha test suspension (equivalent to a rate of 100 ppm) on the test plants at an application volume of 1000 L/ha. The test suspension was sprayed to the point of run-off on wheat seedlings.

The test system of test [2] is Colletotrichum orbiculare. The test can be described thus: Test I: cucumber Colletotrichum anthracnose, preventive spray on cucumber seedlings. The conditions noted are these: 100 = 100% disease control, 0 = no control relative to controls; for pest or weed control at 200 ppm: Colletotrichum orbiculare, 144 h, read-out: Test I disease control rating; for Test I disease control rating: 200 ppm. The essentials:
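Preventive foliar spray to run-off on cucumber seedlings, at 200 ppm (stated as equal to 500 g/ha) or 40 ppm. Test suspensions were made in acetone/water 50/50 containing 250 ppm Trem 014, after first dissolving compound in acetone at 3% of final volume.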

[3] abbreviates: 200 ppm, 100 = 100% disease control, 0 = no control relative to controls.

Each structure is given as a SMILES string. Marks after values point to notes of the source that are not given here.

As for `COC[C@H](C)Nc1nccc(-c2ncnc(Nc3cccc(F)c3)n2)n1` [Compound 5, N-(3-fluorophenyl)-4-[2-[[(1S)-2-methoxy-1-methylethyl]amino]-4-pyrimidinyl]-1,3,5-triazin-2-amine], the pest or weed control at 200 ppm in test [1] came to 100%; in the test with Septoria nodorum it was 100%; with Septoria tritici, 98%; in the test with Fusarium graminearum it was 98%; in the test with Botrytis cinerea (setting [3]), 80%; in the test with Alternaria solani, 0%. The pest or weed control at 200 ppm in test [2] was 99%.

As to `COC[C@H](C)Nc1nccc(-c2ncnc(Nc3ccc(Cl)cc3)n2)n1` [Compound 15], in test [1], the “Test B disease control rating” value was 32%. For the same molecule, in the test with Septoria nodorum, the “Test C disease control rating” value came to 92%. Moreover, the “Test D disease control rating” value in the test with Septoria tritici is 0%. The “Test E disease control rating” value in the test on Fusarium graminearum is listed as 0%. Moreover, in the test on Botrytis cinerea (setting [3]), the “Test F disease control rating” value was 0%. Besides, the “Test H disease control rating” value in the test with Alternaria solani was determined as 90%. For the same molecule, in test [2], the “Test I disease control rating” value is recorded as 93%.

Consider `Cc1cccc(Cl)c1Nc1nccc(-c2ncnc(NC3CCOCC3)n2)n1` [Compound 104, 4-[2-[(2-chloro-6-methylphenyl)amino]-4-pyrimidinyl]-N-(tetrahydro-2H-pyran-4yl)-1,3,5-triazin-2-amine], for which the pest or weed control at 200 ppm in test [1] was determined as 99%; with Septoria nodorum, 94%; with Septoria tritici, 10%; in the test with Fusarium graminearum, 0%; with Botrytis cinerea (setting [3]), 0%; in the test with Alternaria solani, 0%. Besides, the pest or weed control at 200 ppm in test [2] is 0%.

In the case of `CSCC(C)Nc1nccc(-c2ccnc(Nc3cccc(F)c3)c2)n1` (stereo not shown) [Compound 94, 4-[2-[(3-fluorophenyl)amino]-4-pyridinyl]-N-[1-methyl-2-(methylthio)ethyl]-2-pyrimidinamine], the pest or weed control at 200 ppm in test [1] was 89%; in the test with Septoria nodorum it was 95%; in the test with Septoria tritici, 69%; in the test with Fusarium graminearum, 0%; in the test with Botrytis cinerea (setting [3]), 72%; with Alternaria solani, 0%. Also, the pest or weed control at 200 ppm in test [2] amounted to 0%.

`COCC(C)(C)Nc1nccc(-c2ncnc(Nc3cccc(F)c3)n2)n1` [Compound 6]: the “Test B disease control rating” value in test [1] amounted to 97%. In addition, in the test on Septoria nodorum, the “Test C disease control rating” value was determined as 100%. In the test with Septoria tritici, the “Test D disease control rating” value is recorded as 58%. In addition, the “Test E disease control rating” value with Fusarium graminearum is given as 84%. Besides, the “Test F disease control rating” value in the test with Botrytis cinerea (setting [3]) was found to be 85%. Further, the “Test H disease control rating” value in the test on Alternaria solani came out at 98%. For the same molecule, the “Test I disease control rating” value in test [2] is recorded as 0%.

On to `CSCC(C)Nc1nccc(-c2ccnc(Nc3cccc(Cl)c3)c2)n1` (stereo not shown) [Compound 95, 4-[2-[(3-chlorophenyl)amino]-4-pyridinyl]-N-[1-methyl-2-(methylthio)ethyl]-2-pyrimidinamine], for which the pest or weed control at 200 ppm in test [1] turned out to be 88%; in the test on Septoria nodorum it was 94%; with Septoria tritici, 77%; with Fusarium graminearum it was 0%; with Botrytis cinerea (setting [3]) it was 0%; in the test on Alternaria solani it was 0%. The pest or weed control at 200 ppm in test [2] came out at 0%.

`Fc1cccc(Nc2ncnc(-c3ccnc(NC4CC4)n3)n2)c1` [Compound 9]: the “Test B disease control rating” value in test [1] came out at 100%. Further, the “Test C disease control rating” value in the test with Septoria nodorum is 99%. In addition, the “Test D disease control rating” value in the test with Septoria tritici worked out at 20%. Also, the “Test E disease control rating” value in the test on Fusarium graminearum is listed as 80%. The “Test F disease control rating” value with Botrytis cinerea (setting [3]) is recorded as 73%. Also, the “Test H disease control rating” value in the test with Alternaria solani was 99%. Moreover, in test [2], the “Test I disease control rating” value was found to be 100%.

For `COC[C@H](C)Nc1nccc(-c2ncnc(Nc3cc(Cl)cc(Cl)c3)n2)n1` [Compound 28], the “Test B disease control rating” value in test [1] is listed as 73%. In the test on Septoria nodorum, the “Test C disease control rating” value is 99%. Also, in the test on Septoria tritici, the “Test D disease control rating” value was 0%. Besides, the “Test E disease control rating” value in the test on Fusarium graminearum amounted to 90%. Besides, in the test on Botrytis cinerea (40 ppm (marked *)), the “Test F disease control rating” value is reported as 84* %. Besides, in the test with Alternaria solani, the “Test H disease control rating” value came to 85%. Further, the “Test I disease control rating” value in test [2] is 96%.

With `Cc1ccc(Nc2cc(-c3ccnc(NC4CCOCC4)n3)ccn2)c(Cl)c1` [Compound 102, 4-[2-[(2-chloro-4-methylphenyl)amino]-4-pyridinyl]-N-(tetrahydro-2H-pyran-4-yl)-2-pyrimidinamine], the pest or weed control at 200 ppm was found to be 93% in test [1]; 100% in the test with Septoria nodorum; 3% with Septoria tritici; 27% with Fusarium graminearum; 83% with Botrytis cinerea (setting [3]); 41% in the test on Alternaria solani. Moreover, the pest or weed control at 200 ppm in test [2] came out at 0%.

`CC(CO)Nc1nccc(-c2ncnc(Nc3cccc(F)c3)n2)n1` (stereo not shown) [Compound 7]: in test [1], the “Test B disease control rating” value is reported as 99%. The “Test C disease control rating” value with Septoria nodorum is given as 100%. The “Test D disease control rating” value in the test on Septoria tritici was determined as 87%. For the same molecule, the “Test E disease control rating” value in the test on Fusarium graminearum amounted to 0%. The “Test F disease control rating” value in the test on Botrytis cinerea (setting [3]) is 0%. The “Test H disease control rating” value with Alternaria solani is 0%. For the same molecule, in test [2], the “Test I disease control rating” value stood at 96%.

For `CC(=O)OCC(C)Nc1nccc(-c2ncnc(Nc3cccc(F)c3)n2)n1` (stereo not shown) [Compound 8], the “Test B disease control rating” value in test [1] was found to be 97%. The “Test C disease control rating” value with Septoria nodorum is on record as 95%. Further, the “Test D disease control rating” value in the test with Septoria tritici came out at 42%. Besides, the “Test E disease control rating” value in the test on Fusarium graminearum worked out at 77%. In addition, the “Test F disease control rating” value with Botrytis cinerea (setting [3]) is recorded as 0%. In the test on Alternaria solani, the “Test H disease control rating” value was 41%. The “Test I disease control rating” value in test [2] amounted to 0%.

For `COCC(C)Nc1cc(-c2ccnc(Nc3c(C)cccc3Cl)n2)ncn1` (stereo not shown) [Compound 110, N^2-(2-chloro-6-methylphenyl)-N^6′-(2-methoxy-1-methylethyl) [4,4′-bipyrimidine]-2,6′-diamine], the pest or weed control at 200 ppm in test [1] amounted to 89%; in the test with Septoria nodorum, 60%; in the test with Septoria tritici, 9%; in the test with Fusarium graminearum, 0%; in the test on Botrytis cinerea (setting [3]), 65%; in the test with Alternaria solani, 89%. For the same molecule, the pest or weed control at 200 ppm in test [2] was found to be 97%.

Regarding `COC[C@H](C)Nc1nccc(-c2ncnc(Nc3ccc(C)cc3)n2)n1` [Compound 20], the “Test B disease control rating” value in test [1] was 74%. Further, the “Test C disease control rating” value in the test on Septoria nodorum is listed as 100%. Besides, the “Test D disease control rating” value in the test with Septoria tritici is 20%. Moreover, the “Test E disease control rating” value in the test on Fusarium graminearum was found to be 91%. Further, the “Test F disease control rating” value in the test on Botrytis cinerea (setting [3]) is 99%. In the test on Alternaria solani, the “Test H disease control rating” value was 96%. Besides, the “Test I disease control rating” value in test [2] worked out at 0%.

On to `Cc1cc(Cl)ccc1Nc1cc(-c2ccnc(NC3CCOCC3)n2)ccn1` [Compound 103, 4-[2-[(4-chloro-2-methylphenyl)amino]-4-pyridinyl]-N-(tetrahydro-2H-pyran-4-yl)-2-pyrimidinamine], for which the pest or weed control at 200 ppm was 97% in test [1]; 100% in the test on Septoria nodorum; 1% with Septoria tritici; 0% in the test with Fusarium graminearum; 0% in the test with Botrytis cinerea (setting [3]); 99% in the test with Alternaria solani. The pest or weed control at 200 ppm in test [2] was 0%.

`Clc1ccccc1Nc1cc(-c2ccnc(NC3CCOCC3)n2)ccn1` [Compound 101, 4-[2-[(2-chlorophenyl)amino]-4-pyridinyl]-N-(tetrahydro-2H-pyran-4-yl)-2-pyrimidinamine]: the pest or weed control at 200 ppm in test [1] is 99%; in the test on Septoria nodorum, 100%; in the test on Septoria tritici, 53%; with Fusarium graminearum it was 97%; in the test with Botrytis cinerea (setting [3]), 99%; in the test with Alternaria solani it was 92%. For the same molecule, the pest or weed control at 200 ppm in test [2] worked out at 97%.

For `CC(C)(C)Nc1nccc(-c2ncnc(Nc3cccc(F)c3)n2)n1` [Compound 10], the “Test B disease control rating” value in test [1] is given as 93%. The “Test C disease control rating” value in the test with Septoria nodorum was 100%. Moreover, the “Test D disease control rating” value with Septoria tritici turned out to be 10%. In the test with Fusarium graminearum, the “Test E disease control rating” value is 61%. For the same molecule, the “Test F disease control rating” value in the test on Botrytis cinerea (setting [3]) came to 0%. In the test on Alternaria solani, the “Test H disease control rating” value is 97%. The “Test I disease control rating” value in test [2] came to 99%.

(Values after patent publication US8026359B2, “Fungicidal heterocyclic amines” (E.I. du Pont de Nemours and Company, priority 2007, dated 2011).)
